This assay has as its system α7 integrin (LacZ reporter in α7LacZ+/− myoblasts). The experiment in a line: qHTS of the LOPAC library and MLSMR (online screen, α7LacZ+/− myoblasts). The following applies: for activation at 0.307 µM / activation at 1.53 µM / activation at 7.66 µM / activation at 38.3 µM / Emax / EC50: Mus musculus, Myoblast; for activation at 0.307 µM: read-out: Activity at 0.307 uM [%] **; for activation at 1.53 µM: read-out: Activity at 1.530 uM [%] **; for activation at 7.66 µM: read-out: Activity at 7.660 uM [%] **; for activation at 38.3 µM: read-out: Activity at 38.30uM [%] **; for EC50: read-out: Fit LogAC50 (converted).

The mark [1] stands for this setting: 48 h, read-out: Fit Infinite Activity [%].

Like-named read-outs stand apart in the source and are kept apart here.

Turning to `COc1ccc(-c2cc(COc3ccccc3)on2)cc1` [Compound 188], the EC50 is 10 µM. Also, for the setting “48 h”, the activation at 0.307 µM came to 0%, the activation at 1.53 µM stood at 0.795%, the activation at 7.66 µM was 20% and the activation at 38.3 µM worked out at 88.1%. For the same compound, under setting [1], the Emax worked out at 88.2%. Besides, the Emax (read-out: Max Response [%]) is 88.1%.
For the compound `COC(=O)C1SCC2C(=O)N(Cc3ccc(F)cc3)CC(=O)N21` (stereo not shown) [Compound 187], under “48 h”, the activation at 0.307 µM was -53.6%, the activation at 1.53 µM was -42.4%, the activation at 7.66 µM was -1.79% and the activation at 38.3 µM stood at 51.5%. Also, the Emax under setting [1] worked out at 65.7%. Under “read-out: Max Response [%]”, the Emax is 51.5%.
As to `COc1ccc(NC(=O)c2cccc(N3C(=O)c4ccc(C(=O)Nc5ccc(OC)c(O)c5)cc4C3=O)c2)cc1O` [Compound 13], the EC50 was 4.47 µM. Where the note is “48 h”, the activation at 0.307 µM is -24.8%, the activation at 1.53 µM was -27.4%, the activation at 7.66 µM amounted to 80.7% and the activation at 38.3 µM was found to be 95.6%. Under setting [1], the Emax is 94.7%.
As to `COc1cc(=O)n(C)c2ccccc12` [Compound 25], the EC50 is 2.24 µM. Moreover, under “48 h”, the activation at 0.307 µM was -16.5%, the activation at 1.53 µM was 11.1%, the activation at 7.66 µM was found to be 54.5% and the activation at 38.3 µM was 63%. Under setting [1], the Emax came to 64.1%.
Take `COc1ccc(CN2CCNC(=O)C2CC(=O)NCCc2c[nH]c3ccccc23)c(OC)c1` (stereo not shown) [Compound 208]: the EC50 was 10 µM. Where the note is “48 h”, the activation at 0.307 µM is -7.84%, the activation at 1.53 µM was -10.8%, the activation at 7.66 µM is 16.4% and the activation at 38.3 µM came to 73.4%. In addition, the Emax under setting [1] came out at 74.6%. The Emax (read-out: Max Response [%]) is 73.4%.
Regarding `O=C(NCCCn1ccnc1)/C(=C/c1cccs1)NC(=O)c1ccco1` [Compound 124], for the setting “48 h”, the activation at 0.307 µM was -19.2%, the activation at 1.53 µM is -7.39%, the activation at 7.66 µM was found to be 35.5% and the activation at 38.3 µM stood at 85.9%. For the same compound, the Emax under setting [1] was determined as 103%. Moreover, for the setting “read-out: Max Response [%]”, the Emax came out at 85.9%.
For the compound `Cc1nn(C(C)(C)C)c(C)c1/C=N/OC(=O)Nc1ccc(Cl)c(Cl)c1` [Compound 32], the “Curve Description” value is listed as “Complete” and the EC50 was 2.82 µM. Moreover, where the note is “48 h”, the activation at 0.307 µM is -28.1%, the activation at 1.53 µM was -9.46%, the activation at 7.66 µM worked out at 51% and the activation at 38.3 µM came out at 59.8%. For the same compound, the Emax under setting [1] was found to be 60.2%.
On to `COc1ccc(-n2c(C)c(C(C)=O)c3cc(OC(C)=O)ccc32)cc1` [Compound 59], for which the EC50 is 10 µM. Further, for the setting “48 h”, the activation at 0.307 µM was found to be 0%, the activation at 1.53 µM is -6.19%, the activation at 7.66 µM was determined as 48.5% and the activation at 38.3 µM was 184%. Also, the Emax under setting [1] was 185%. Moreover, the Emax (read-out: Max Response [%]) worked out at 184%.
As for `O=C(O)c1cc(/N=C/c2c(O)oc3ccccc3c2=O)ccc1O` [Compound 48], the EC50 was 7.08 µM. Under “48 h”, the activation at 0.307 µM was -32%, the activation at 1.53 µM was -23.3%, the activation at 7.66 µM came out at 76.6% and the activation at 38.3 µM came to 165%. The Emax under setting [1] came out at 179%.
As to `CCCCN(CCCC)CCNC(=O)c1cn(C)c2ccc(S(=O)(=O)N(C)C3CCCCC3)cc2c1=O` [Compound 157], the EC50 was 10 µM. Under “48 h”, the activation at 0.307 µM was -0.706%, the activation at 1.53 µM was -3.27%, the activation at 7.66 µM came out at 17.7% and the activation at 38.3 µM worked out at 67.5%. Also, under setting [1], the Emax came out at 68.2%. Besides, the Emax (read-out: Max Response [%]) was 67.5%. Also, for the setting “Table 8 Compound data”, the Score stood at 42.
As for `CC(NC(=O)c1cn(C)c2ccc(S(=O)(=O)N3CCCC3)cc2c1=O)c1ccccc1` (stereo not shown) [Compound 28], the EC50 is 2.82 µM. Further, for the setting “48 h”, the activation at 0.307 µM is -36%, the activation at 1.53 µM is -20.6%, the activation at 7.66 µM was determined as 48.9% and the activation at 38.3 µM was 54.7%. Besides, the Emax under setting [1] stood at 55.3%.
As to `O=C1CCc2cc(S(=O)(=O)Nc3ccc(C(F)(F)F)cc3)cc3c2N1CC3` [Compound 138], under “48 h”, the activation at 0.307 µM is -26.1%, the activation at 1.53 µM is -19.1%, the activation at 7.66 µM came out at 23.6% and the activation at 38.3 µM worked out at 85.8%. The Emax under setting [1] worked out at 108%. Further, where the note is “read-out: Max Response [%]”, the Emax amounted to 85.8%.
For `CCOC(=O)c1sc(=N)n(-c2ccc(OC)cc2)c1C` [Compound 26], the EC50 was 2 µM. Moreover, where the note is “48 h”, the activation at 0.307 µM is -25.4%, the activation at 1.53 µM turned out to be 4.59%, the activation at 7.66 µM stood at 41.9% and the activation at 38.3 µM is 56.1%. The Emax under setting [1] came out at 59.6%.
Consider `Cc1ccccc1C(=O)Nc1scc(-c2ccc(Br)cc2)c1C(=O)O` [Compound 4], for which the EC50 was 2.82 µM. Also, under “48 h”, the activation at 0.307 µM is 9.85%, the activation at 1.53 µM worked out at 38.3%, the activation at 7.66 µM worked out at 119% and the activation at 38.3 µM was determined as 137%. Further, the Emax under setting [1] amounted to 137%.
For `CCCC(=O)Nc1ccccc1NC(=O)c1ccc(OCC)cc1` [Compound 206], under “48 h”, the activation at 0.307 µM came out at 12.1%, the activation at 1.53 µM was determined as 15.3%, the activation at 7.66 µM worked out at 28.5% and the activation at 38.3 µM stood at 91.2%. For the same compound, the Emax under setting [1] was determined as 91.9%. Further, the Emax (read-out: Max Response [%]) came to 91.2%.
Turning to `O=C(COc1cc2oc(=O)c3c(c2cc1Cl)CCCC3)NC[C@H]1CC[C@H](C(=O)O)CC1` [Compound 95], the EC50 was 7.08 µM. Moreover, for the setting “48 h”, the activation at 0.307 µM was -12.4%, the activation at 1.53 µM came out at 3.06%, the activation at 7.66 µM amounted to 36.2% and the activation at 38.3 µM turned out to be 67.9%. Also, under setting [1], the Emax was 83.4%. The Emax (read-out: Max Response [%]) came to 67.9%.
For the compound `O=Cc1cn(Cc2ccc(F)cc2Cl)c2ccccc12` [Compound 209], for the setting “48 h”, the activation at 0.307 µM came out at 13%, the activation at 1.53 µM was determined as 10.6%, the activation at 7.66 µM was found to be 18.6% and the activation at 38.3 µM worked out at 139%. Moreover, the Emax under setting [1] was found to be 142%. Further, where the note is “read-out: Max Response [%]”, the Emax is 139%.
Regarding `Cc1cccc(OCc2nc(C#N)c(N3CCCC3)o2)c1` [Compound 2], the EC50 was 3.55 µM. Further, where the note is “48 h”, the activation at 0.307 µM was determined as 9.52%, the activation at 1.53 µM turned out to be 57%, the activation at 7.66 µM turned out to be 175% and the activation at 38.3 µM amounted to 223%. Also, the Emax under setting [1] stood at 231%.
Take `O=[N+]([O-])c1ccc(N2CCN(c3ccccc3F)CC2)nc1` [Compound 49]: the EC50 was 5.62 µM. In addition, where the note is “48 h”, the activation at 0.307 µM was 2.3%, the activation at 1.53 µM is 15.5%, the activation at 7.66 µM came out at 102% and the activation at 38.3 µM is 151%. The Emax under setting [1] is 154%.
Regarding `O=S(=O)(c1ccccc1)N1CCCC(c2nc(O)c3nnn(Cc4cccc(Cl)c4)c3n2)C1` (stereo not shown) [Compound 161], under “48 h”, the activation at 0.307 µM was -37%, the activation at 1.53 µM was -17.7%, the activation at 7.66 µM amounted to 22.4% and the activation at 38.3 µM was determined as 48.1%. The Emax under setting [1] came to 55%. For the setting “read-out: Max Response [%]”, the Emax turned out to be 48.1%.
Take `CS(=O)(=O)Cc1cccc(C(=O)NN(c2ccccc2)c2ccccc2)c1` [Compound 102]: the EC50 is 12.6 µM. Moreover, for the setting “48 h”, the activation at 0.307 µM amounted to 10.3%, the activation at 1.53 µM is 11.3%, the activation at 7.66 µM was found to be 24.3% and the activation at 38.3 µM worked out at 159%. Also, the Emax under setting [1] is 160%. The Emax (read-out: Max Response [%]) amounted to 159%.
On to `CNP(=O)(Oc1ccccc1)OC12CC3CC(CC(C3)C1)C2` (stereo not shown) [Compound 182], for which the EC50 was 10 µM. Further, where the note is “48 h”, the activation at 0.307 µM was determined as 0%, the activation at 1.53 µM was found to be 0%, the activation at 7.66 µM is 34.7% and the activation at 38.3 µM came to 93.6%. Besides, the Emax under setting [1] is 98.2%. For the same compound, the Emax (read-out: Max Response [%]) worked out at 93.6%.
Regarding `Cn1c(=O)c2c(nc(Sc3ncnn3CC(=O)NC3CCCCC3)n2C)n(C)c1=O` [Compound 201], for the setting “48 h”, the activation at 0.307 µM is -21.5%, the activation at 1.53 µM was -17.1%, the activation at 7.66 µM was 8.09% and the activation at 38.3 µM worked out at 69.8%. Further, the Emax under setting [1] turned out to be 74.9%. The Emax (read-out: Max Response [%]) was found to be 69.8%.
Regarding `Cc1c(C(=O)N2CCCCC2)c(S(=O)(=O)Nc2cccc(Br)c2)c(C)n1C` [Compound 155], the EC50 is 10 µM. For the same compound, under “48 h”, the activation at 0.307 µM is -32.1%, the activation at 1.53 µM is -31.8%, the activation at 7.66 µM is -9.12% and the activation at 38.3 µM was 60.5%. The Emax under setting [1] is 60.9%. For the same compound, under “read-out: Max Response [%]”, the Emax was 60.5%.
As to `CCCN(C(=O)c1ccc(S(=O)(=O)N2CCCC2)cc1)C1CCS(=O)(=O)C1` (stereo not shown) [Compound 89], the EC50 was 5.01 µM. Under “48 h”, the activation at 0.307 µM is -9.99%, the activation at 1.53 µM was -0.297%, the activation at 7.66 µM was 45.6% and the activation at 38.3 µM came out at 74.1%. Further, under setting [1], the Emax turned out to be 75.3%. Moreover, under “read-out: Max Response [%]”, the Emax was 74.1%.
Take `CCOC(=O)C1=C(NC(=O)c2ccc(OC)c(S(=O)(=O)N3CCCCC3C)c2)Nc2ccccc2N=C1CC` (stereo not shown) [Compound 45]: the Score was found to be 47 and the EC50 was 14.1 µM. Moreover, for the setting “48 h”, the activation at 0.307 µM is -16.6%, the activation at 1.53 µM stood at 0.0514%, the activation at 7.66 µM was found to be 18.6% and the activation at 38.3 µM is 414%. For the same compound, the Emax under setting [1] was 420%. In addition, under “read-out: Max Response [%]”, the Emax turned out to be 414%.

The values above are taken from patent publication US9980943B2, “Methods of treating muscular dystrophy” (BOARD OF REGENTS OF THE NEVADA SYSTEM OF HIGHER EDUCATION, …, priority 2013, dated 2018).
